Columns and labels:
[1] = In vivo study in dogs with phosphate buffer formulation, 30-minute infusion (Example 6); set-up: species or system beagle dog; conditions: 0.1M phosphate buffer, single IV infusion over 30 minutes, 1 male and 1 female
Protocol: Dosages were 25 and 50 mg/kg. Sampling for plasma level determination was taken for 1 day at the following intervals: end of infusion (0), 30 minutes, 1 hour, 3 hours, 6 hours, and 24 hours after the end of the infusion.

[2] = Preliminary animal toxicological studies, infusion of simple phosphate buffer formulation; assay type: in vivo; conditions: infused at 10 mg/mL or greater as a simple phosphate buffer formulation
Source text: (2R)-2-[4-(7-Bromo-2-quinolyloxy)phenoxy]propanoic acid may be administered as a liquid parenteral formulation. […] Since significant hemolysis can cause anemia, the hemolytic effect of (2R)-2-[4-(7-bromo-2-quinolyloxy)phenoxy]propanoic acid is an undesirable property for a pharmaceutical composition.

[3] = In vivo study in rats with phosphate buffer formulation, 1-hour infusion (Example 7); conditions: 400 mg/kg dose, 0.1M phosphate buffer, single IV infusion over 1 hour, day of the infusion
Protocol: Dosages were 0 (control), 100, 200, and 400 mg/kg.

[4] = In vitro hemolytic potential with dog erythrocytes, phosphate buffer vehicle (Example 1); assay type: cell-based; conditions: dog, whole blood, n=5 (mean), percentage of that induced by saponin
Protocol: (§1) The following study was performed to evaluate the hemolytic potential of solutions of (2R)-2-[4-(7-bromo-2-quinolyloxy)phenoxy]propanoic acid in a 0.1 M pH 8 phosphate bufferred vehicle at concentrations of 10 mg/mL and 20 mg/mL. Saline (0.9% NaCl) was used as a negative control, and saponin (3% aqueous solution), which is a known inducer of hemolysis, was used as the positive control.
(§2) Dog whole blood was mixed in a 1:1 ratio and a 9:1 ratio with solutions of the active ingredient in the vehicle and with the vehicles alone. Dog whole blood was also mixed in a 1:1 ratio and a 9:1 ratio with a 3% saponin solution as the positive control and saline (0.9% NaCl) as the negative control.
(§3) After mixing, tubes were incubated for 30 minutes at 37°C, then centrifuged (3000 t/min.) for 10 minutes. Hemoglobin concentrate was dosed in the supernatant by spectrophotometry UV/visible (Genesis technologies) for the assessment of the in vitro hemolytic potential. The percent of hemolysis was calculated based on the results of the saponin samples.

dog erythrocytes [5] = assay: as above; assay type: cell-based; conditions: 10 and 20 mg/mL solutions in 0.1 M pH 8 phosphate buffer
Protocol: as §1, §2, §3

dog erythrocytes [6] = assay: In vitro hemolytic potential in dog erythrocytes for a formulation containing a cyclodextrin (Example 4); assay type: cell-based; conditions: 10 mg/mL Active Ingredient in 0.05M pH 7 phosphate buffer with 10% (w/v) hydroxypropyl beta cyclodextrin, n=6 (mean), percentage of that induced by saponin, 30 min
Protocol: Saline (0.9% NaCl) was used as the negative control, and saponin (3% aqueous solution) was used as the positive control.
as §2, §3

C[C@@H](Oc1ccc(Oc2ccc3ccc(Br)cc3n2)cc1)C(=O)O [Active Ingredient, (2R)-2-[4-(7-bromo-2-quinolyloxy)phenoxy]propanoic acid]
visual hemolysis on plasma samples ([1]; 25 mg/kg, seen at time 0 and 30 minutes post infusion (all animals), 1 hour (male)): visual hemolysis was observed | visual hemolysis on plasma samples ([1]; 50 mg/kg, seen at time 0, 30 minutes, 1 hour, 3 hours (both animals) and 6 hours (female)): visual hemolysis was observed | hemolysis [2]: cause a degree of hemolysis | discolored urine (red/brown), animals affected ([3]; females): 8 out of 10 | discolored urine (red/brown), animals affected ([3]; males): 6 out of 10 | hemolysis at 0.5 h ([4]; pH 8, 10 mg/mL Active Ingredient in 0.1 M pH 8 phosphate buffer, Blood/Solution ratio 1:1): 24% | hemolysis at 0.5 h ([4]; pH 8, 10 mg/mL Active Ingredient in 0.1 M pH 8 phosphate buffer, Blood/Solution ratio 9:1): 4.5% | hemolysis at 0.5 h ([4]; pH 8, 20 mg/mL Active Ingredient in 0.1 M pH 8 phosphate buffer, Blood/Solution ratio 1:1): 28% | hemolysis at 0.5 h ([4]; pH 8, 20 mg/mL Active Ingredient in 0.1 M pH 8 phosphate buffer, Blood/Solution ratio 9:1): 6.6% | hemolysis of dog erythrocytes (result in words) (dog erythrocytes [5]): induced hemolysis | Percentage of Hemolysis (dog erythrocytes [6]; Blood/Solution ratio 1:1): 1.8% | Percentage of Hemolysis (dog erythrocytes [6]; Blood/Solution ratio 9:1): 0.5%
